Assay results reported in ChEMBL document CHEMBL1201861, “Genomics of Drug Sensitity in Cancer screening data, Wellcome Trust Sanger Institute”.
pIC50: −log10 of the molar value.

Tests used:
Test in all cases: cells
[1] = tested on: TGW; format: functional, cell-based, Homo sapiens; conditions: Homo sapiens, TGW;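 also: growth inhibition of human TGW cells, read out with a cell viability assay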
Description: SANGER: Inhibition of human TGW cell growth in a cell viability assay.

[2] = tested on: GR-ST; format: functional, cell-based, Homo sapiens; conditions: Homo sapiens, GR-ST
Description: SANGER: Inhibition of human GR-ST cell growth in a cell viability assay.

[3] = tested on: MZ1-PC; format: functional, cell-based, Homo sapiens; conditions: Homo sapiens, MZ1-PC;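 also: cell viability assay measuring growth inhibition of human MZ1-PC cells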
Description: SANGER: Inhibition of human MZ1-PC cell growth in a cell viability assay.

[4] = tested on: NH-12; format: functional, cell-based, Homo sapiens; conditions: Homo sapiens, NH-12;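 also: growth inhibition of NH-12 cells, read out with a cell viability assay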
Description: SANGER: Inhibition of human NH-12 cell growth in a cell viability assay.

[5] = tested on: A101D; format: functional, cell-based, Homo sapiens; conditions: Homo sapiens, A101D;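 also: growth inhibition of the cell line, measured with a viability assay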
Description: SANGER: Inhibition of human A101D cell growth in a cell viability assay.

[6] = tested on: EW-1; format: functional, cell-based, Homo sapiens; conditions: Homo sapiens, EW-1;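 also: growth inhibition of the human EW-1 cell line, read out by a cell viability assay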
Description: SANGER: Inhibition of human EW-1 cell growth in a cell viability assay.

[7] = tested on: SK-NEP-1; format: functional, cell-based, Homo sapiens; conditions: Homo sapiens, SK-NEP-1;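 also: growth inhibition of human SK-NEP-1 cells, read out by a cell viability assay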
Description: SANGER: Inhibition of human SK-NEP-1 cell growth in a cell viability assay.

[8] = tested on: NB69; format: functional, cell-based, Homo sapiens; conditions: Homo sapiens, NB69;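 also: growth inhibition of NB69 cells, determined by a cell viability assay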
Description: SANGER: Inhibition of human NB69 cell growth in a cell viability assay.

[9] = tested on: SF-268; format: functional, cell-based, Homo sapiens; conditions: Homo sapiens, SF-268;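 also: growth inhibition of SF-268 cells determined with a cell viability assay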
Description: SANGER: Inhibition of human SF268 cell growth in a cell viability assay.

[10] = tested on: DB; format: functional, cell-based, Homo sapiens; conditions: Homo sapiens, DB
Description: SANGER: Inhibition of human DB cell growth in a cell viability assay.

[11] = tested on: DMS-114; format: functional, cell-based, Homo sapiens; conditions: Homo sapiens, DMS-114
[12] = tested on: NCI-H1581; format: functional, cell-based, Homo sapiens; conditions: Homo sapiens, NCI-H1581;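 also: cell growth inhibition read out by a viability assay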
Description: SANGER: Inhibition of human NCI-H1581 cell growth in a cell viability assay.

[13] = tested on: IST-MES1; format: functional, cell-based, Homo sapiens; conditions: Homo sapiens, IST-MES1;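 also: growth inhibition of IST-MES1 cells, measured with a cell viability assay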
Description: SANGER: Inhibition of human IST-MES1 cell growth in a cell viability assay.

[14] = tested on: OCI-AML2; format: functional, cell-based, Homo sapiens; conditions: Homo sapiens, OCI-AML2;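 also: growth inhibition of OCI-AML2 cells, read out with a cell viability assay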
Description: SANGER: Inhibition of human OCI-AML2 cell growth in a cell viability assay.

[15] = tested on: MOLT-16; format: functional, cell-based, Homo sapiens; conditions: Homo sapiens, MOLT-16;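 also: growth inhibition of human MOLT-16 cells, read out with a cell viability assay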
Description: SANGER: Inhibition of human MOLT-16 cell growth in a cell viability assay.

[16] = tested on: GI-1; format: functional, cell-based, Homo sapiens; conditions: Homo sapiens, GI-1;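 also: growth inhibition of human GI-1 cells, measured with a cell viability readout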
Description: SANGER: Inhibition of human GI-1 cell growth in a cell viability assay.

[17] = tested on: NB6; format: functional, cell-based, Homo sapiens; conditions: Homo sapiens, NB6;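 also: growth inhibition of NB6 cells, read out by a cell viability assay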
Description: SANGER: Inhibition of human NB6 cell growth in a cell viability assay.

[18] = tested on: no-11; format: functional, cell-based, Homo sapiens; conditions: Homo sapiens;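 also: growth inhibition of human NO-11 cells, read out with a cell viability assay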
Description: SANGER: Inhibition of human no-11 cell growth in a cell viability assay.

[19] = tested on: TE-9; format: functional, cell-based, Homo sapiens; conditions: Homo sapiens, TE-9;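 also: cell growth inhibition, measured with a cell viability readout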
Description: SANGER: Inhibition of human TE-9 cell growth in a cell viability assay.

[20] = tested on: KINGS-1; format: functional, cell-based, Homo sapiens; conditions: Homo sapiens, KINGS-1;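 also: cell viability assay measuring suppression of KINGS-1 cell growth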
Description: SANGER: Inhibition of human KINGS-1 cell growth in a cell viability assay.

[21] = tested on: TE-10; format: functional, cell-based, Homo sapiens; conditions: Homo sapiens, TE-10;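 also: growth inhibition of TE-10 cells, measured by a cell viability assay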
Description: SANGER: Inhibition of human TE-10 cell growth in a cell viability assay.

[22] = tested on: ONS-76; format: functional, cell-based, Homo sapiens; conditions: Homo sapiens, ONS-76;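 also: growth inhibition of human ONS-76 cells, read out with a cell viability assay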
Description: SANGER: Inhibition of human ONS-76 cell growth in a cell viability assay.

[23] = tested on: GOTO; format: functional, cell-based, Homo sapiens; conditions: Homo sapiens, GOTO;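 also: growth inhibition of GOTO cells, read out by a cell viability assay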
Description: SANGER: Inhibition of human GOTO cell growth in a cell viability assay.

[24] = tested on: MZ2-MEL; format: functional, cell-based, Homo sapiens; conditions: Homo sapiens, MZ2-MEL;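 also: growth inhibition of MZ2-MEL cells read out with a cell viability assay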
Description: SANGER: Inhibition of human MZ2-MEL cell growth in a cell viability assay.

[25] = tested on: COLO-668; format: functional, cell-based, Homo sapiens; conditions: Homo sapiens, COLO-668
Description: SANGER: Inhibition of human COLO-668 cell growth in a cell viability assay.

[26] = tested on: MSTO-211H; format: functional, cell-based, Homo sapiens; conditions: Homo sapiens, MSTO-211H
Description: SANGER: Inhibition of human MSTO-211H cell growth in a cell viability assay.

[27] = tested on: BV-173; format: functional, cell-based, Homo sapiens; conditions: Homo sapiens, BV-173
Description: SANGER: Inhibition of human BV-173 cell growth in a cell viability assay.

[28] = tested on: NCI-H1838; format: functional, cell-based, Homo sapiens; conditions: Homo sapiens, NCI-H1838;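 also: growth inhibition of NCI-H1838 cells, determined with a cell viability readout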
Description: SANGER: Inhibition of human NCI-H1838 cell growth in a cell viability assay.

[29] = tested on: COLO-800; format: functional, cell-based, Homo sapiens; conditions: Homo sapiens, COLO-800;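 also: growth inhibition of COLO-800 cells, read out with a cell viability assay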
Description: SANGER: Inhibition of human COLO-800 cell growth in a cell viability assay.

[30] = tested on: NTERA-2-cl-D1; format: functional, cell-based, Homo sapiens; conditions: Homo sapiens, NTERA-2-cl-D1;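 also: inhibition of cell growth, measured with a cell viability assay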
Description: SANGER: Inhibition of human NTERA-S-cl-D1 cell growth in a cell viability assay.

[31] = tested on: NMC-G1; format: functional, cell-based, Homo sapiens; conditions: Homo sapiens, NMC-G1;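 also: growth inhibition of the NMC-G1 cell line, measured with a cell viability read-out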
Description: SANGER: Inhibition of human NMC-G1 cell growth in a cell viability assay.

[32] = tested on: RH-1; format: functional, cell-based, Homo sapiens; conditions: Homo sapiens, RH-1;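 also: growth inhibition of human RH-1 cells, read out with a cell viability assay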
Description: SANGER: Inhibition of human RH-1 cell growth in a cell viability assay.

[33] = tested on: CW-2; format: functional, cell-based, Homo sapiens; conditions: Homo sapiens, CW-2;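 also: growth inhibition of CW-2 cells, read out by a cell viability assay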
Description: SANGER: Inhibition of human CW-2 cell growth in a cell viability assay.

[34] = tested on: UACC-257; format: functional, cell-based, Homo sapiens; conditions: Homo sapiens, UACC-257
Description: SANGER: Inhibition of human UACC-257 cell growth in a cell viability assay.

[35] = tested on: CTB-1; format: functional, cell-based, Homo sapiens; conditions: Homo sapiens, CTB-1
Description: SANGER: Inhibition of human CTB-1 cell growth in a cell viability assay.

[36] = tested on: LB2518-MEL; format: functional, cell-based; conditions: Homo sapiens;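 also: growth inhibition of human LB2518-MEL cells, measured with a cell viability assay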
Description: SANGER: Inhibition of human LB2518-MEL cell growth in a cell viability assay.

[37] = tested on: TE-6; format: functional, cell-based, Homo sapiens; conditions: Homo sapiens, TE-6;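 also: growth inhibition of TE-6 cells, read out with a cell viability assay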
Description: SANGER: Inhibition of human TE-6 cell growth in a cell viability assay.

[38] = tested on: ES7; format: functional, cell-based, Homo sapiens; conditions: Homo sapiens, ES7;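 also: growth inhibition of cultured human ES7 cells, read out as cell viability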
Description: SANGER: Inhibition of human ES7 cell growth in a cell viability assay.

[39] = tested on: NOS-1; format: functional, cell-based, Homo sapiens; conditions: Homo sapiens, NOS-1;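 also: growth inhibition of the human NOS-1 cell line, read out with a cell viability assay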
Description: SANGER: Inhibition of human NOS-1 cell growth in a cell viability assay.

[40] = tested on: HT; format: functional, cell-based, Homo sapiens; conditions: Homo sapiens, HT
Description: SANGER: Inhibition of human HT cell growth in a cell viability assay.

[41] = tested on: NCI-H1155; format: functional, cell-based, Homo sapiens; conditions: Homo sapiens, NCI-H1155;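 also: cell growth inhibition measured by a viability assay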
Description: SANGER: Inhibition of human NCI-H1155 cell growth in a cell viability assay.

[42] = tested on: Ramos-2G6-4C10; format: functional, cell-based, Homo sapiens; conditions: Homo sapiens, Ramos-2G6-4C10;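 also: growth inhibition of the cell line, measured by a cell viability read-out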
Description: SANGER: Inhibition of human Ramos-2G6-4C10 cell growth in a cell viability assay.

[43] = tested on: SBC-1; format: functional, cell-based, Homo sapiens; conditions: Homo sapiens, SBC-1;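 also: cell viability assay measuring growth inhibition of the SBC-1 cell line, IC50 being the concentration that halves growth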
Description: SANGER: Inhibition of human SBC-1 cell growth in a cell viability assay.

[44] = tested on: K5; format: functional, cell-based, Homo sapiens; conditions: Homo sapiens, K5
Description: SANGER: Inhibition of human K5 cell growth in a cell viability assay.

[45] = tested on: DOHH-2; format: functional, cell-based, Homo sapiens; conditions: Homo sapiens, DOHH-2;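 also: growth inhibition of human DOHH-2 cells, read out with a cell viability assay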
Description: SANGER: Inhibition of human DOHH-2 cell growth in a cell viability assay.

[46] = tested on: ML-2; format: functional, cell-based, Homo sapiens; conditions: Homo sapiens, ML-2;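 also: growth inhibition of ML-2 cells, measured with a cell viability readout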
Description: SANGER: Inhibition of human ML-2 cell growth in a cell viability assay.

[47] = tested on: COLO-824; format: functional, cell-based, Homo sapiens; conditions: Homo sapiens, COLO-824
Description: SANGER: Inhibition of human COLO-824 cell growth in a cell viability assay.

[48] = tested on: KNS-81-FD; format: functional, cell-based, Homo sapiens; conditions: Homo sapiens, KNS-81-FD;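 also: growth inhibition of KNS-81-FD cells, read out with a cell viability assay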
Description: SANGER: Inhibition of human KNS-81-FD cell growth in a cell viability assay.

[49] = tested on: EM-2; format: functional, cell-based, Homo sapiens; conditions: Homo sapiens, EM-2;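 also: growth inhibition of EM-2 cells, read out with a cell viability assay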
Description: SANGER: Inhibition of human EM-2 cell growth in a cell viability assay.

## C=CC(=O)N1CCCC(Nc2nc(Nc3ccc(N(C)C(=O)CC)cc3)nc3[nH]cnc23)C1 (stereo not drawn)
[1]
  pIC50: < 4.99
[2]
  pIC50: < 4.99
[3]
  pIC50: 5.10
[4]
  pIC50: < 4.99
[5]
  pIC50: < 4.99
[6]
  pIC50: < 4.99
[7]
  pIC50: < 4.99
[8]
  pIC50: < 4.99
[9]
  pIC50: < 4.99
[10]
  pIC50: < 4.99
[11]
  pIC50: < 4.99
[12]
  pIC50: < 4.99
[13]
  pIC50: < 4.99
[14]
  pIC50: < 4.99
[15]
  pIC50: < 4.99
[16]
  pIC50: < 4.99
[17]
  pIC50: < 4.99
[18]
  pIC50: < 4.99
[19]
  pIC50: < 4.99
[20]
  pIC50: < 4.99
[21]
  pIC50: < 4.99
[22]
  pIC50: < 4.99
[23]
  pIC50: < 4.99
[24]
  pIC50: < 4.99
[25]
  pIC50: < 4.99
[26]
  pIC50: < 4.99
[27]
  pIC50: < 4.99
[28]
  pIC50: < 4.99
[29]
  pIC50: < 4.99
[30]
  pIC50: < 4.99
[31]
  pIC50: < 4.99
[32]
  pIC50: < 4.99
[33]
  pIC50: < 4.99
[34]
  pIC50: < 4.99
[35]
  pIC50: < 4.99
[36]
  pIC50: < 4.99
[37]
  pIC50: < 4.99
[38]
  pIC50: < 4.99
[39]
  pIC50: < 4.99
[40]
  pIC50: < 4.99
[41]
  pIC50: < 4.99
[42]
  pIC50: < 4.99
[43]
  pIC50: 5.10
[44]
  pIC50: < 4.99
[45]
  pIC50: < 4.99
[46]
  pIC50: < 4.99
[47]
  pIC50: < 4.99
[48]
  pIC50: < 4.99
[49]
  pIC50: < 4.99

## COc1ccc(N(C(=O)Oc2c(C)cccc2C)c2ccnc(Nc3ccc(N4CCN(C)CC4)cc3)n2)c(OC)c1
[1]
  pIC50: < 5.29
[2]
  pIC50: < 5.29
[3]
  pIC50: 6.64
[4]
  pIC50: < 5.29
[5]
  pIC50: < 5.29
[6]
  pIC50: < 5.29
[7]
  pIC50: < 5.29
[8]
  pIC50: < 5.29
[9]
  pIC50: 5.60
[10]
  pIC50: < 5.29
[11]
  pIC50: 5.55
[12]
  pIC50: < 5.29
[13]
  pIC50: 6.45
[14]
  pIC50: < 5.29
[15]
  pIC50: < 5.29
[16]
  pIC50: < 5.29
[17]
  pIC50: 5.77
[18]
  pIC50: < 5.29
[19]
  pIC50: 5.36
[20]
  pIC50: 5.71
[21]
  pIC50: 5.37
[22]
  pIC50: < 5.29
[23]
  pIC50: < 5.29
[24]
  pIC50: 5.51
[25]
  pIC50: < 5.29
[26]
  pIC50: < 5.29
[27]
  pIC50: > 7.70
[28]
  pIC50: < 5.29
[29]
  pIC50: < 5.29
[30]
  pIC50: 6.54
[31]
  pIC50: < 5.29
[32]
  pIC50: < 5.29
[33]
  pIC50: < 5.29
[34]
  pIC50: < 5.29
[35]
  pIC50: < 5.29
[36]
  pIC50: 7.33
[37]
  pIC50: < 5.29
[38]
  pIC50: < 5.29
[39]
  pIC50: 6.02
[40]
  pIC50: < 5.29
[41]
  pIC50: < 5.29
[42]
  pIC50: < 5.29
[43]
  pIC50: < 5.29
[44]
  pIC50: < 5.29
[45]
  pIC50: > 7.70
[46]
  pIC50: < 5.29
[47]
  pIC50: < 5.29
[48]
  pIC50: < 5.29
[49]
  pIC50: > 7.70
